Experimental data reported in US20260234144A1 (TAY THERAPEUTICS LIMITED, priority 2023, published 2026).

How the values were obtained:
[1] = test system: R213X mutation in the p53 gene, HDQ-P1 cells; test: Read-through of R213X mutation in HDQ-P1 cells: truncated and full-length p53 by automated capillary electrophoresis western analysis; assay type: cell-based; settings: Homo sapiens; for EC (50% of 200 uM G418 response): pC50% NMD: production of truncated p53, concentration giving 50% of the response of 200 μM G418, 24 h; for EC (100% of 200 uM G418 response): pC100% RT: production of full-length p53, concentration giving the same response as 200 μM G418, 24 h
Procedure: The ability of compounds to promote read-through in cells was assessed using the HDQ-P1 cell line which contain the R213X mutation in the p53 gene. […] Changes in the protein levels of p21, a direct downstream target of p53, were also determined as evidence of functional p53 protein production.
HDQ-P1 cells (R213X) were treated with DMSO (0.3%), or test article for 24 h at various concentrations. Cells were washed once with ice cold 1×PBS and lysed in M-Per protein extraction reagent (ThermoFisher), Benzonase® Nuclease and protease inhibitor mixture (Roche) centrifuged at 4° C. for 15 min at 16 000×g, the supernatants, termed cell extracts, were collected and total proteins were quantified with Bradford protein assay kit (ThermoFisher). Briefly, mixtures of cell lysates (protein concentration 0.5 mg/mL) and the fluorescent master mix were heated at 95° C. for 5 min. […] Signals were generated using BioTechne anti-mouse detection module and anti-rabbit NIR detection module. […] As an additional loading control, total protein levels were assessed with the ProteinSimple protein normalisation module. The data were acquired and analysed using the inbuilt Compass software (ProteinSimple) with the high dynamic range detection profile, which uses multiple substrate injections and exposure times. Electropherograms were converted to pseudo-blots and presented in figures for ease of visualization.
Concentration effect curves for both the production of truncated and full-length p53 were analysed using non-linear regression using the CDD Vault from Collaborative Drug Discovery (Burlingame, CA). […] The bottom and top of the curves were constrained to 0 and the maximum measured response respectively. From the fitted curves, the software derived C100% or C50% values (the concentration giving the same or 50% of the response of 200 μM G418) for each compound. The negative logarithm of C50% or C100% is reported as pC50% NMD or pC100% RT for the production of truncated or full-length p53 respectively (Table 2).

[2] = test system: R223X stop codon in the mutated luciferase gene, ADXC8 luciferase reporter cell line; test: cells; assay type: cell-based; settings: 24 h, ADXC8 cells, 24 hours; for Emax: read-out: Fold Over Control, maximum fold response relative to 200 μM G418; for EC (100% of 200 uM G418 response): read-out: pC100%, negative logarithm of the concentration giving the same response as 200 μM G418

Row | SMILES | EC (50% of 200 uM G418 response) [1] | EC (100% of 200 uM G418 response) [1] | Emax [2] | EC (100% of 200 uM G418 response) [2]
1 | Cc1c2c(nc3nc(NC4CCN(Cc5ccncc5)CC4)nc(N)c13)CCC2 [Example 651] | 0.1 to 1 µM | 1 to 10 µM | 100 to 3000% | 0.1 to 1 µM
2 | Cc1c2c(nc3nc(NC4CCN(Cc5cccc(F)c5O)CC4)nc(N)c13)CCC2 [Example 532] | 0.1 to 1 µM | 1 to 10 µM | 100 to 3000% | 0.01 to 0.1 µM
3 | CNc1nc(N[C@@H]2CCNC2)nc2nc(C)c3c(c12)CCC3 [Example 304] | 1 to 10 µM | 1 to 10 µM |  | 0.1 to 1 µM
4 | CNc1nc(N[C@H]2CN(C)C[C@@H]2F)nc2nc3c(c(C)c12)CCC3 [Example 362] | 0.1 to 1 µM | 1 to 10 µM | 100 to 3000% | 1 to 10 µM
5 | CNc1nc(NC2CCN(Cc3ccccc3O)CC2)nc2nc3c(c(C)c12)CCC3 [Example 656] | 0.1 to 1 µM | 0.1 to 1 µM | 100 to 3000% | 0.01 to 0.1 µM
6 | CNc1nc(N[C@H]2CN(C)C[C@@H]2O)nc2nc(C)cc(C)c12 [Example 338] | 1 to 10 µM |  | 100 to 3000% | 1 to 10 µM
7 | CN1CCC(Nc2nc(N)c3c4c(c(-c5ccccc5)nc3n2)CCC4)CC1 [Example 45, N^3-(1-methylpiperidin-4-yl)-6-phenyl-8,9-dihydro-7H-cyclopenta[4,5]pyrido[2,3-d]pyrimidine-1,3-diamine] | 1 to 10 µM | 1 to 10 µM | 100 to 3000% | 0.1 to 1 µM
8 | Cc1nc2nc(NC3CCN(Cc4cccc(F)c4O)CC3)nc(N)c2c2c1CCC2 [Example 531] | 1 to 10 µM | 1 to 10 µM | 100 to 3000% | 0.1 to 1 µM
9 | CCNc1nc(N[C@@H]2CCN(C)C2)nc2nc(C)c3c(c12)CCC3 [Example 396] | 1 to 10 µM | 1 to 10 µM |  | 0.1 to 1 µM
10 | Cc1c(Cl)c(-c2ccccc2)nc2nc(NC3CCN(C)CC3)nc(N)c12 [Example 48, 6-chloro-5-methyl-N2-(1-methylpiperidin-4-yl)-7-phenylpyrido[2,3-d]pyrimidine-2,4-diamine] | 1 to 10 µM | 1 to 10 µM |  | 1 to 10 µM
11 | Cc1cc(C)c2c(N)nc(N[C@@H]3CCCNC3)nc2n1 [Example 225, (R)-5,7-dimethyl-N^2-(piperidin-3-yl)pyrido[2,3-d]pyrimidine-2,4-diamine] | 0.1 to 1 µM | 1 to 10 µM |  | 0.1 to 1 µM
12 | CNc1nc(N[C@H]2CN(C)C[C@@H]2OC)nc2nc3c(c(C)c12)CCC3 [Example 423] | 0.1 to 1 µM | 0.1 to 1 µM |  | 0.01 to 0.1 µM
13 | CCNc1nc(NC2CCN(C)CC2)nc2nc(C)cc(C)c12 [Example 322] | 1 to 10 µM | 1 to 10 µM |  | 0.1 to 1 µM
14 | CNc1nc(N[C@H]2CN(C)C[C@H]2F)nc2nc3c(c(C)c12)CCC3 [Example 233, N^2-((3S,4R)-4-fluoro-1-methylpyrrolidin-3-yl)-N^4,5-dimethyl-7,8-dihydro-6H-cyclopenta[5,6]pyrido[2,3-d]pyrimidine-2,4-diamine] | 0.1 to 1 µM |  | 100 to 3000% | 0.1 to 1 µM
15 | CNc1nc(N[C@H]2CN(C)C[C@@H]2O)nc2nc(C)c3c(c12)CCC3 [Example 363] | 0.1 to 1 µM | 1 to 10 µM | 100 to 3000% | 0.1 to 1 µM
16 | Cc1c2c(nc3nc(NC4CCNCC4)nc(N)c13)CCC2 [Example 577] | 1 to 10 µM | 1 to 10 µM | 100 to 3000% | 0.01 to 0.1 µM
17 | CNc1nc(N[C@H]2CN(C)C[C@@H]2OC)nc2nc(C)cc(C)c12 [Example 228, N^2-((3S,4S)-4-methoxy-1-methylpyrrolidin-3-yl)-N^4,5,7-trimethylpyrido[2,3-d]pyrimidine-2,4-diamine] | 0.1 to 1 µM | 1 to 10 µM | 100 to 3000% | 0.1 to 1 µM
18 | CC(=O)Nc1ccccc1CN1CCC(Nc2nc(N)c3c(C)cc(C)nc3n2)CC1 [Example 486] | 1 to 10 µM | 1 to 10 µM | 100 to 3000% | 0.1 to 1 µM
19 | CNc1nc(N[C@H]2CNC[C@H]2F)nc2nc3c(c(C)c12)CCC3 [Example 343] | 1 to 10 µM | 1 to 10 µM | 100 to 3000% | 0.1 to 1 µM
20 | Cc1nc2nc(NC3CCN(Cc4ccncc4)CC3)nc(N)c2c2c1CCC2 [Example 529] | 1 to 10 µM |  | 100 to 3000% | 0.1 to 1 µM
21 | CNc1nc(N[C@H]2CNCC[C@H]2OC)nc2nc(C)cc(C)c12 [Example 516, N^2-((3S,4R)-4-methoxypiperidin-3-yl)-N^4,5,7-trimethylpyrido[2,3-d]pyrimidine-2,4-diamine] | 0.1 to 1 µM | 0.1 to 1 µM |  | 0.01 to 0.1 µM
22 | CCNc1nc(N[C@@H]2CCN(C)C2)nc2nc3c(c(C)c12)CCC3 [Example 234, (R)—N^4-ethyl-5-methyl-N^2-(1-methylpyrrolidin-3-yl)-7,8-dihydro-6H-cyclopenta[5,6]pyrido[2,3-d]pyrimidine-2,4-diamine] | 0.1 to 1 µM | 0.1 to 1 µM |  | 0.1 to 1 µM
23 | CO[C@H]1CNC[C@@H]1Nc1nc(N)c2c(C)cc(C)nc2n1 [Example 583] | 1 to 10 µM |  |  | 0.01 to 0.1 µM
24 | CNc1cc(N[C@H]2CN(C)C[C@H]2F)nc2nc3c(c(C)c12)CCC3 [Example 422] | 0.1 to 1 µM | 0.1 to 1 µM |  | 0.1 to 1 µM
25 | Cc1c2c(nc3nc(NC4CCN(Cc5ccc(C#N)cc5O)CC4)nc(N)c13)CCC2 [Example 526, 4-((4-((4-amino-5-methyl-7,8-dihydro-6H-cyclopenta[5,6]pyrido[2,3-d]pyrimidin-2-yl)amino)piperidin-1-yl)methyl)-3-hydroxybenzonitrile] | 0.1 to 1 µM | 1 to 10 µM | 100 to 3000% | 0.01 to 0.1 µM
26 | CNc1nc(N[C@H]2CNC[C@@H]2OC)nc2nc(C)cc(C)c12 [Example 227, N^2-((3S,4S)-4-methoxypyrrolidin-3-yl)-N^4,5,7-trimethylpyrido[2,3-d]pyrimidine-2,4-diamine] | 1 to 10 µM | 1 to 10 µM |  | 0.1 to 1 µM
27 | CNc1nc(N[C@@H]2CN(C)C[C@H]2C)nc2nc(C)cc(C)c12 [Example 378] |  |  | 100 to 3000% | 1 to 10 µM
28 | CC(C)c1ccnc2nc(NC3CCN(C)CC3)nc(N)c12 [Example 246, 5-isopropyl-N^2-(1-methylpiperidin-4-yl)pyrido[2,3-d]pyrimidine-2,4-diamine] |  |  | 0 to 100% | > 100 µM
